Test results from ChEMBL document CHEMBL1201862, “PubChem BioAssay data set” (2004).
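Protocol summary: plate cells (96-well), add compound at 5 concentrations, incubate 48 h, interpolate endpoints linearly. GI50 marks 50% less growth.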 Calls of active or inactive are those of the source. Cut-off read from the data, not from the text of the source: active = GI50 up to about 1.1 µM and inactive = higher.

Legend:
Assay in all cases: DTP human tumour cell line panel, 48 h
786-0 = test system: 786-0
A498 = test system: A498
A549 = test system: A549
ACHN = test system: ACHN
BT-549 = test system: BT-549
CAKI-1 = test system: CAKI-1
CCRF-CEM = test system: CCRF-CEM
COLO 205 = test system: COLO 205
DLD-1 = test system: DLD-1
DMS-273 = test system: DMS-273
DU-145 = test system: DU-145
EKVX = test system: EKVX
HCC 2998 = test system: HCC 2998
HCT-116 = test system: HCT-116
HCT-15 = test system: HCT-15
HL-60 = test system: HL-60
HOP-18 = test system: HOP-18
HOP-62 = test system: HOP-62
HOP-92 = test system: HOP-92
HT-29 = test system: HT-29
Hs-578T = test system: Hs-578T
IGROV-1 = test system: IGROV-1
K562 = test system: K562
KM-20L2 = test system: KM-20L2
KM12 = test system: KM12
LOX IMVI = test system: LOX IMVI
LXFL 529 = test system: LXFL 529
M14 = test system: M14
M19-MEL = test system: M19-MEL
MDA-MB-231 = test system: MDA-MB-231
MDA-MB-435 = test system: MDA-MB-435
MDA-N = test system: MDA-N
MOLT-4 = test system: MOLT-4
Malme-3M = test system: Malme-3M
NCI-H226 = test system: NCI-H226
NCI-H23 = test system: NCI-H23
NCI-H460 = test system: NCI-H460
NCI-H522 = test system: NCI-H522
NCI/ADR-RES = test system: NCI/ADR-RES
OVCAR-3 = test system: OVCAR-3
OVCAR-4 = test system: OVCAR-4
OVCAR-5 = test system: OVCAR-5
OVCAR-8 = test system: OVCAR-8
PC-3 = test system: PC-3
RPMI-8226 = test system: RPMI-8226
RXF 393 = test system: RXF 393
SF-268 = test system: SF-268
SF-295 = test system: SF-295
SF-539 = test system: SF-539
SK-MEL-28 = test system: SK-MEL-28
SK-MEL-2 = test system: SK-MEL-2
SK-MEL-5 = test system: SK-MEL-5
SK-OV-3 = test system: SK-OV-3
SN12C = test system: SN12C
SNB-19 = test system: SNB-19
SNB-75 = test system: SNB-75
SNB-78 = test system: SNB-78
SR = test system: SR
SW-620 = test system: SW-620
T47D = test system: T47D
TK-10 = test system: TK-10
U-251 = test system: U-251
UACC-257 = test system: UACC-257
UACC-62 = test system: UACC-62
UO-31 = test system: UO-31
DMS-114 = test system: DMS-114

COc1cccc2c1C(=O)c1c(O)c3c(c(O)c1C2=O)C[C@@](O)(C(C)=O)C[C@@H]3OC1CC(O)C(O)C(C)O1 (stereo not given in full)
GI50 (786-0): 1.57 µM (inactive) | GI50 (A498): 3.05 µM (inactive) | GI50 (A549): 0.465 µM (active) | GI50 (ACHN): 0.543 µM (active) | GI50 (BT-549): 3.33 µM (inactive) | GI50 (CAKI-1): 0.789 µM (active) | GI50 (CCRF-CEM): 0.0902 µM (active) | GI50 (COLO 205): 2.05 µM (inactive) | GI50 (DLD-1): 1.46 µM (inactive) | GI50 (DMS-273): 0.253 µM (active) | GI50 (DU-145): 1.62 µM (inactive) | GI50 (EKVX): 6.67 µM (inactive) | GI50 (HCC 2998): 0.918 µM (active) | GI50 (HCT-116): 0.288 µM (active) | GI50 (HCT-15): 1.43 µM | GI50 (HL-60): 0.0501 µM (active) | GI50 (HOP-18): 1.39 µM (inactive) | GI50 (HOP-62): 0.307 µM (active) | GI50 (HOP-92): 2.1 µM (inactive) | GI50 (HT-29): 1.41 µM (inactive) | GI50 (Hs-578T): 0.998 µM (active) | GI50 (IGROV-1): 3.05 µM (inactive) | GI50 (K562): 0.925 µM (active) | GI50 (KM-20L2): 2.69 µM (inactive) | GI50 (KM12): 1.55 µM (inactive) | GI50 (LOX IMVI): 0.59 µM (active) | GI50 (LXFL 529): 2.79 µM (inactive) | GI50 (M14): 4.8 µM (inactive) | GI50 (M19-MEL): 1.6 µM (inactive) | GI50 (MDA-MB-231): 8.65 µM (inactive) | GI50 (MDA-MB-435): 8.95 µM (inactive) | GI50 (MDA-N): 8.71 µM (inactive) | GI50 (MOLT-4): 0.0208 µM (active) | GI50 (Malme-3M): 0.000916 µM (active) | GI50 (NCI-H226): 0.289 µM (active) | GI50 (NCI-H23): 0.942 µM (active) | GI50 (NCI-H460): 0.124 µM (active) | GI50 (NCI-H522): 1.82 µM (inactive) | GI50 (NCI/ADR-RES): 0.36 µM (active) | GI50 (OVCAR-3): 3.69 µM (inactive) | GI50 (OVCAR-4): 3.81 µM (inactive) | GI50 (OVCAR-5): 1.04 µM (active) | GI50 (OVCAR-8): 1.3 µM (inactive) | GI50 (PC-3): 4.95 µM (inactive) | GI50 (RPMI-8226): 0.485 µM (active) | GI50 (RXF 393): 1.17 µM (inactive) | GI50 (SF-268): 1.08 µM (active) | GI50 (SF-295): 0.673 µM (active) | GI50 (SF-539): 0.9 µM (active) | GI50 (SK-MEL-28): 6.08 µM (inactive) | GI50 (SK-MEL-2): 4.81 µM (inactive) | GI50 (SK-MEL-5): 0.875 µM (active) | GI50 (SK-OV-3): 4.51 µM (inactive) | GI50 (SN12C): 0.675 µM (active) | GI50 (SNB-19): 1.09 µM (active) | GI50 (SNB-75): 1.62 µM (inactive) | GI50 (SNB-78): 4.42 µM (inactive) | GI50 (SR): 0.00935 µM (active) | GI50 (SW-620): 0.536 µM (active) | GI50 (T47D): 2.82 µM (inactive) | GI50 (TK-10): 5.74 µM (inactive) | GI50 (U-251): 0.359 µM (active) | GI50 (UACC-257): 3.79 µM (inactive) | GI50 (UACC-62): 1.04 µM (active) | GI50 (UO-31): 1.66 µM (inactive)

COc1ccccc1NC(=O)C1=C(C)NC(C)=C(C(=O)Nc2ccccc2OC)C1/C=C/c1ccccc1
GI50 (786-0): > 100 µM (inactive) | GI50 (A498): > 100 µM (inactive) | GI50 (A549): 80.9 µM (inactive) | GI50 (ACHN): 90.8 µM (inactive) | GI50 (CAKI-1): > 100 µM (inactive) | GI50 (CCRF-CEM): 49.1 µM (inactive) | GI50 (COLO 205): > 100 µM (inactive) | GI50 (DLD-1): > 100 µM (inactive) | GI50 (DMS-114): 61.7 µM (inactive) | GI50 (DMS-273): > 100 µM (inactive) | GI50 (EKVX): 89.3 µM (inactive) | GI50 (HCC 2998): > 100 µM (inactive) | GI50 (HCT-116): 48.3 µM (inactive) | GI50 (HCT-15): > 100 µM | GI50 (HL-60): 60.1 µM (inactive) | GI50 (HOP-18): > 100 µM (inactive) | GI50 (HOP-62): > 100 µM (inactive) | GI50 (HOP-92): > 100 µM (inactive) | GI50 (HT-29): > 100 µM (inactive) | GI50 (IGROV-1): > 100 µM (inactive) | GI50 (K562): 50.2 µM (inactive) | GI50 (KM-20L2): > 100 µM (inactive) | GI50 (KM12): > 100 µM (inactive) | GI50 (LOX IMVI): > 100 µM (inactive) | GI50 (LXFL 529): 84.9 µM (inactive) | GI50 (M14): > 100 µM (inactive) | GI50 (M19-MEL): > 100 µM (inactive) | GI50 (MOLT-4): 39.4 µM (inactive) | GI50 (Malme-3M): > 100 µM (inactive) | GI50 (NCI-H226): > 100 µM (inactive) | GI50 (NCI-H23): > 100 µM (inactive) | GI50 (NCI-H460): > 100 µM (inactive) | GI50 (OVCAR-3): > 100 µM (inactive) | GI50 (OVCAR-4): 20.1 µM (inactive) | GI50 (OVCAR-5): > 100 µM (inactive) | GI50 (OVCAR-8): > 100 µM (inactive) | GI50 (RPMI-8226): 55.3 µM (inactive) | GI50 (SF-268): 92.9 µM (inactive) | GI50 (SF-295): > 100 µM (inactive) | GI50 (SF-539): > 100 µM (inactive) | GI50 (SK-MEL-28): > 100 µM (inactive) | GI50 (SK-MEL-2): > 100 µM (inactive) | GI50 (SK-MEL-5): > 100 µM (inactive) | GI50 (SK-OV-3): > 100 µM (inactive) | GI50 (SN12C): > 100 µM (inactive) | GI50 (SNB-19): > 100 µM (inactive) | GI50 (SNB-75): 25.8 µM (inactive) | GI50 (SNB-78): 54.8 µM (inactive) | GI50 (SR): 51.8 µM (inactive) | GI50 (SW-620): > 100 µM (inactive) | GI50 (TK-10): > 100 µM (inactive) | GI50 (U-251): > 100 µM (inactive) | GI50 (UACC-257): > 100 µM (inactive) | GI50 (UACC-62): 97.9 µM (inactive) | GI50 (UO-31): > 100 µM (inactive)
